In brackets after ≈: the same amount, converted by molar mass.
Test system: Mycobacterium tuberculosis
Experiment: Antimycobacterial activity against Mycobacterium tuberculosis InhA S94A assessed as reduction in bacterial growth
Type: functional

SMILES | MIC [µg/mL]
Oc1cc2ccc1Oc1ccc(cc1)CCc1ccc(c(O)c1)Oc1ccc(cc1)CC2 | 40 (≈ 94.2 µM)
CC/C(C)=C1\OC(=O)[C@H](C)[C@H](O)[C@H](Cc2cccnc2)NC(=O)[C@@H](NC(=O)c2ncccc2O)[C@@H](C)OC1=O [PYRIDOMYCIN] | 0.3 (≈ 0.555 µM)

Source: ChEMBL document CHEMBL5230110, “FabI (enoyl acyl carrier protein reductase) - A potential broad spectrum therapeutic target and its inhibitors” (Eur J Med Chem, 2020)
